Source: patent publication US20090252754A1, “Vaccines containing the hiv tat protein as an adjuvant for the enhancement of cytotoxic t-cell responses” (priority 2003, published 2009)

Columns and labels:
[1] = system: proteasomes purified from MIN-Tat and MIN-0; test: In vitro degradation of CLG+5 epitope precursor by purified proteasomes (HPLC, IFN-γ ELISPOT of fractions); assay type: biochemical, human
Experimental: 500 μg of synthetic peptide were incubated with 127 μg of purified proteasomes in 300 μl of buffer (25 mM Tris HCL pH 7.4, 5 mM MgCl2, 500 μM EDTA pH 8.0, 1 mM DTT, 2 mM ATP) at 37° C. At the indicated time points, 60 μl of sample were collected and the reaction was stopped by adding 2 volumes of ethanol at 0° C.
Digestion mixtures were centrifuged at 5000 rpm for 5 minutes. 80 μl of supernatant were collected and peptide digests were separated by reverse-phase HPLC at the flow rate of 0.7 ml/min, as follows: linear gradient of 0-100% of solution B (acetonitrile 100% with 0.1% TFA) for 25 min, followed by linear gradient of 0-100% for solution A (water 100% with 0.1% TFA) for 5 min. The fractionation was simultaneously monitored at 210 and 280 nm. […]
Plates were incubated for 24 h at 37° C., 5% CO2 and then washed three times with PBS and three times with washing buffer (PBS 0.05% Tween 20) before 100 μl of biotinylated anti-IFN-γ MAb (1 μg/ml; Endogen, Woburn, Mass.) were added, and incubated at 37° C. for 60 min. […] Wells were washed, and individual IFN-γ producing cells were detected using ABC chromogen kit (Sigma, Saint Louise, Mo.). IFN-γ-secreting T cells were counted by direct visualisation. The number of specific IFN-γ-secreting T cells, expressed as spot-forming cells (SFC) per 10^6 cells, was calculated by subtracting the negative control value. […]

[2] = system: proteasome subunits (α2, PA28α, LMP2, LMP7, MECL1) in MIN and MON LCL's; test: Western blot of proteasome subunits in lymphoblastoid cell lines expressing or treated with Tat; assay type: cell-based, human
Experimental: PG13 murine amphotropic packaging cell line^54 was cultured in DMEM supplemented with 10% FCS. Jurkat T cell transfectants (pRPneo-c and pRPneo-c-Tat)^22 were cultured in RPMI 1640 medium, supplemented with 10% FCS and 800 μg/ml neomycin (Sigma). Lymphoblastoid cell lines (LCL) were established by in vitro infection of normal B-lymphocytes from healthy donors with the B95.8 strain of EBV. LCL's were cultured in RPMI 1640 medium supplemented with 10% FCS.
MIN and MON LCL's were transduced with pBabePuro-Tat (MIN-Tat and MON-Tat) or pBabePuro (MIN-0 and MON-0) recombinant retroviruses by co-cultivation with packaging cell lines using transwell-clear tissue culture membranes. Subconfluent PG13 pBabePuro and PG13 pBabePuro-Tat cells, grown in the lower chamber, were co-cultivated in the presence of 8 μg/ml polybrene (Sigma) with MIN or MON LCL's (3×10^6/well) added to the upper chamber in 2.5 ml of RPMI 1640 medium supplemented with 10% FCS. After 48 hrs of co-cultivation, cells were harvested from the membranes and grown in culture medium containing puromycin (0.3 μg/ml) for 6 weeks. All cell lines were characterised by DNA-PCR, RT-PCR and Northern blot analysis.
Equal amounts of proteins were loaded on a 12% SDS-PAGE gel and electroblotted onto Protran nitrocellulose membranes (Schleicher & Schuell, Keene, Hampshire, USA). The blots were probed with antibodies specific for α2, LMP2, LMP7, MECL1, and PA28α subunits (Affinity, Exeter, UK) and developed by enhanced chemiluminescence (ECL, Amersham Pharmacia Biotech, Uppsala, SW).
To test the effect on proteasomes in cells after the up-take of exogenous Tat protein, MIN and MON LCL's were cultured in the absence or presence of increasing concentrations of biologically active Tat protein for 24 hours at 37° C. After treatment, the expression of the different subunits was analysed and compared to that of untreated cells. […] However, treatment with 0.1-1 μg/ml of Tat determined a down-regulation of LMP2 and an up-regulation of LMP7 and MECL1 as compared to untreated cells (FIG. 4).

[3] = LCL's expressing endogenous Tat vs control cells
[4] = LCL's treated with 0.1-1 μg/ml of Tat, 24 hours, vs untreated

Substance: Tat: HIV-1 Tat protein from HTLV type IIIB isolate, expressed in E. Coli or endogenously in cells; wild type SEQ ID NO 284
- degradation of the CLG+5 peptide precursor ([1]; proteasomes from Tat-expressing cells (MIN-Tat) vs empty vector (MIN-0)): more efficiently
- generation of the immunogenic CLG peptide ([1]; proteasomes from Tat-expressing cells, 120 min digests, CLG-specific CTL ELISPOT): generate with more efficiency
- proteasome expression (α2-subunit) ([2]; LCL's expressing endogenous Tat (MIN-Tat, MON-Tat) vs control cells): No difference
- expression of LMP2 [2, 3]: marked down-regulation
- expression of LMP7 [2, 3]: up-regulation
- expression of MECL1 [2, 3]: up-regulation
- expression of PA28α regulator [2, 3]: no differences
- expression of LMP2 [2, 4]: down-regulation
- expression of LMP7 [2, 4]: up-regulation
- expression of MECL1 [2, 4]: up-regulation
- expression of the α2-subunit ([2]; MIN and MON LCL's cultured with exogenous Tat protein, 24 hours, vs untreated): No difference
